Bridge positions count the residues as written; N and C are the ends. Ends that are not written are not given here. Peptide text beside a SMILES is read from it.
What was measured:
chymotrypsin = chymotrypsin (Bos taurus, UniProt P00766); experiment: in vitro
Method in brief: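 Peptide and 0.05 μg/μL chymotrypsin were preincubated at 37 °C for 5 min, then mixed. Aliquots taken from 1.5 up to 60.0 min were quenched with 10% TFA, and remaining peptide was measured as RP-HPLC peak area.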

trypsin = molecular target: T1, trypsin (Bos taurus, UniProt P00760); experiment: in vitro; details: for Remaining peak area (%)/Trypsin: 0 h
T1 sequence (P00760 24-246): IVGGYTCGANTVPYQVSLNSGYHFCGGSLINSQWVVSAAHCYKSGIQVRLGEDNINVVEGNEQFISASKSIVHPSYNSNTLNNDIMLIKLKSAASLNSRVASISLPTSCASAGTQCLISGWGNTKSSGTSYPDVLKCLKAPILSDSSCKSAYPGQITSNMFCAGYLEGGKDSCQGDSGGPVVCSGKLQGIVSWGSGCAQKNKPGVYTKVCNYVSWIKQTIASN
Method in brief: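 Peptides were preincubated for 5 min at 37 °C and then digested with 0.05 μg/μL trypsin solution (stock). Remaining intact peptide was quantified as RP-HPLC peak area.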

[1] = rat, in vivo
Protocol: (§1) Rats were fasted for 12 hours with water ad libitum before the experiment. The animals were randomly divided into 4 groups (5 animals in each group). The normal control group was injected with normal saline solution, and the commercially available salmon Calcitonin (sCat) and synthetic Calcitonin analog (CalM) were injected subcutaneously. The capsule form Cal BT (1 umol/kg, p.o.) was administered by gavage.

rats = experiment: Hypo-calcifying effect of salmon calcitonin and analogues, blood calcium concentration in rats; assay type: in vivo, rat; details: sCat and CalM subcutaneous, capsule form Cal BT 1 umol/kg p.o., 0-24 h
Protocol: FIG. 24. The blood calcium concentration percentage-time curve of rat.
as §1
Take blood from the inner canthus of rats at the predetermined time points: 0, 2, 3, 4, 6, 8, 12, and 24 h later, with at least 0.2 mL of blood taken each time. The blood sample was placed at 4° C. for stratification and centrifuged at 3000 rpm for 10 minutes. The serum was separated and measured for serum calcium ion concentration.
The serum calcium ion concentration at 0 h was considered as baseline, the blood calcium concentration at other time was converted into the percentage ratio of baseline. The blood calcium curve was drawn with time as the X axis and the percentage of blood calcium concentration (%) as the Y axis.

mouse ear swelling = experiment: Croton oil mouse ear swelling, IL-17A inhibitory peptide administered subcutaneously; assay type: in vivo; details: subcutaneous, peptides 30 mg/kg, Secukinumab 5 mg/kg
Protocol: IL-17A is an inflammatory factor in many chronic inflammatory reactions. In order to quickly evaluate and analyze its anti-inflammatory effects, a mouse ear swelling model was first used for preliminary screening of anti-inflammatory activities. The experimental process is as follows. Kunming male mice (18-20 g, n=10) were labeled with picric acid. All mice in each group were coated with 10 μL croton oil on both sides of the right ear. Immediately after modeling, the positive drugs Secukinumab group (5 mg/kg), inhibitory peptides 17A, 17A-BT, 17A-CH, and 17A-EC (30 mg/kg) were subcutaneously injected. The model control group (Con) was injected with a corresponding volume of physiological saline. After causing inflammation for 4 hours, the mice in each group were killed for cervical dislocation, and then the ear pieces were punched in the symmetrical parts of the left and right ears with a hole punch. The weight was weighed and recorded. The swelling degree and swelling rate were calculated:
Swelling rate=((right ear mass−left ear mass)/left ear mass)*100%

[2] = system: P407 induced hyperlipidemia mice; experiment: Duodenal injection of PCSK9 inhibitory peptide, serum total cholesterol in P407 induced hyperlipidemia mice; assay type: in vivo, mouse
Protocol: The experimental polypeptide sample was prepared using PEG400 with a final concentration of 20 μmol/kg and the final concentration of PEG400 is 50% (w/v). The control group was saline containing PEG400 (50%).
Normal ICR mice were fasted overnight with water ad libitum. The next day, all of the mice were intraperitoneally injected with poloxamer 407 (P407, 500 mg/kg) to establish a model of lipid metabolism disorder. Six mice were intraperitoneally injected with saline as a normal control (Nor). Normal feeding resumed after 2 hours. The model animals were randomly divided into model group (Con) and polypeptide groups according to body weight, and the blood was collected from tail tip (0 min). Then, the animals were anesthetized with ether for duodenal exposure surgery. At the same time, a sample or saline containing PEG400 was injected through the duodenum. Finally, the wound was sutured. The blood was collected from tail tip at 15, 30, 60, and 90 minutes after administration to determine the serum total cholesterol level.

[3] = system: P407-induced hyperlipidemia mice; experiment: Subcutaneous injection of PCSK9 inhibitory peptide, serum total cholesterol in P407-induced hyperlipidemia mice; assay type: in vivo, mouse; details: for serum total cholesterol (TC) level after subcutaneous injection (in words): 2 μmol/kg single s.c., P407-induced hyperlipidemia mice
Method in brief: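 ICR mice, fasted overnight, received intraperitoneal P407 at 500 mg/kg. After 24 h they received subcutaneous peptide at 2 μmol/kg in 20% PEG400; vehicle-treated and normal groups served as controls. Serum total cholesterol was measured at various times after dosing.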

[4] = molecular target: T2, interaction of PCSK9-LDLR (Homo sapiens, UniProt Q8NBP7); experiment: PCSK9-LDLR in vitro binding assay (inhibitory rate); details: in vitro
T2 construct: purchased MBL Company, Beijing, China CY-8150
Method in brief: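 Polypeptide (final 50 μM) pre-incubated 20 min at room temperature with PCSK9 (final 75 ng/mL), then run in a PCSK9-LDLR binding kit read at OD450/540 nm. Inhibition rate calculated relative to a solvent control (water or DMSO) lacking polypeptide.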

[5] = isolated enzyme chymotrypsin, pH 7.8, Remaining peak area (%)/chymotrypsin
[6] = isolated enzyme trypsin, pH 7.8

CC[C@H](C)[C@@H]1NC(=O)[C@@H]2CCCN2C(=O)[C@@H]2CCCN2C(=O)[C@H]([C@@H](C)CC)NC(=O)[C@H](CO)NC(=O)[C@H](CCCCN)NC(=O)[C@H]([C@@H](C)O)NC(=O)[C@H](C)NC(=O)[C@H](CCCNC(=N)N)NC(=O)[C@H](C)NC(=O)[C@@H](NC(=O)CNC(=O)[C@@H]2CCCN2C(=O)[C@@H](NC(=O)CNC(=O)[C@H](CO)NC(=O)CNC(=O)[C@@H](NC(=O)[C@H](CC(N)=O)NC(=O)[C@@H](NC(=O)[C@H](CCCNC(=N)N)NC(=O)[C@@H]2CCCN2C(=O)[C@H](Cc2ccc(O)cc2)NC(=O)[C@@H](NC(=O)[C@H](CCC(N)=O)NC(=O)[C@H](CC(C)C)NC(=O)[C@H](CCCCN)NC(=O)[C@H](Cc2c[nH]cn2)NC(=O)[C@H](C)NC(=O)[C@H](CCC(=O)O)NC(=O)[C@H](CCC(N)=O)NC(=O)[C@H](CO)NC(=O)[C@H](CC(C)C)NC(=O)[C@H](CCCCN)NC(=O)CNC(=O)[C@H](CC(C)C)NC(=O)CNC(=O)[C@@H]2CSSC[C@H](N)C(=O)N[C@@H](CO)C(=O)N[C@@H](CC(N)=O)C(=O)N[C@@H](CC(C)C)C(=O)N[C@@H](CO)C(=O)N[C@@H]([C@@H](C)O)C(=O)N2)[C@@H](C)O)[C@@H](C)O)[C@@H](C)O)[C@@H](C)O)CSSC[C@@H](C(=O)N[C@@H](Cc2ccccc2)C(=O)O)NC1=O [Cal-BT]
stability towards chymotrypsin hydrolysis (in words) (chymotrypsin): high tolerance to chymotrypsin
Remaining peak area (%)/chymotrypsin (chymotrypsin; 0 h): 100.0 ± 0.0%
remaining at 0.025 h, 60 μM (chymotrypsin; [5]): 86.3 ± 9%
remaining at 0.05 h, 60 μM (chymotrypsin; [5]): 83.9%
remaining at 0.075 h, 60 μM (chymotrypsin; [5]): 73.1 ± 1.7%
remaining at 0.1 h, 60 μM (chymotrypsin; [5]): 71.8 ± 1.1%
remaining at 0.15 h, 60 μM (chymotrypsin; [5]): 70 ± 3%
remaining at 0.25 h, 60 μM (chymotrypsin; [5]): 61.3%
remaining at 0.5 h, 60 μM (chymotrypsin; [5]): 58.9 ± 2.3%
remaining at 1 h, 60 μM (chymotrypsin; [5]): 46 ± 1.3%
stability towards trypsin hydrolysis (in words) (trypsin): resistant to the corresponding protease degradation
Remaining peak area (%)/Trypsin (trypsin): 100.0 ± 0.0%
remaining at 0.025 h, 60 μM (trypsin; [6]): 84.2 ± 5.6%
remaining at 0.05 h, 60 μM (trypsin; [6]): 87.8 ± 1%
remaining at 0.075 h, 60 μM (trypsin; [6]): 71.4 ± 0.9%
remaining at 0.1 h, 60 μM (trypsin; [6]): 74.3 ± 3.4%
remaining at 0.15 h, 60 μM (trypsin; [6]): 77.1 ± 8.4%
remaining at 0.25 h, 60 μM (trypsin; [6]): 69.4 ± 6.5%
remaining at 0.5 h, 60 μM (trypsin; [6]): 69.5 ± 6.6%
remaining at 1 h, 60 μM (trypsin; [6]): 68.2 ± 8.4%
Body weight (g) X ± SD End [1]: 158.9 ± 3.2 g
Body weight (g) X ± SD Start [1]: 176.1 ± 5.1 g
Changes of body weight (%) [1]: −9.80%
blood calcium concentration (in words) (rats): did not effectively reduce the blood calcium concentration of rats within 24 h after administration
blood calcium concentration (in words) (rats; listed as Cal BT): did not effectively reduce the concentration of calcium ions in rats

CC(C)C[C@H](NC(=O)CNC(=O)[C@@H]1CSSC[C@H](N)C(=O)N[C@@H](CO)C(=O)N[C@@H](CC(N)=O)C(=O)N[C@@H](CC(C)C)C(=O)N[C@@H](CO)C(=O)N[C@@H]([C@@H](C)O)C(=O)N1)C(=O)NCC(=O)N[C@@H](CCCCN)C(=O)N[C@@H](CC(C)C)C(=O)N[C@@H](CO)C(=O)N[C@@H](CCC(N)=O)C(=O)N[C@@H](CCC(=O)O)C(=O)N[C@@H](C)C(=O)N[C@@H](Cc1c[nH]cn1)C(=O)N[C@@H](CCCCN)C(=O)N[C@@H](CC(C)C)C(=O)N[C@@H](CCC(N)=O)C(=O)N[C@H](C(=O)N[C@@H](Cc1ccc(O)cc1)C(=O)N1CCC[C@H]1C(=O)N[C@@H](CCCNC(=N)N)C(=O)N[C@H](C(=O)N[C@@H](CC(N)=O)C(=O)N[C@H](C(=O)NCC(=O)N[C@@H](CO)C(=O)NCC(=O)N[C@H](C(=O)N1CCC[C@H]1C(=O)O)[C@@H](C)O)[C@@H](C)O)[C@@H](C)O)[C@@H](C)O [CalM] (H-CSNLSTCGLGKLSQEAHKLQTYPRTNTGSGTP-OH; disulfide 1-7)
remaining at 1 h, 60 μM (chymotrypsin; isolated enzyme chymotrypsin, pH 7.8, prototype peptide remaining after chymotrypsin hydrolysis): ~4.9%
stability towards trypsin hydrolysis (in words) (trypsin): extremely unstable towards trypsin
Remaining peak area (%)/Trypsin (trypsin): 100.0 ± 0.0%
remaining at 0.025 h, 60 μM (trypsin; [6]): 9 ± 2.3%
remaining at 0.05 h, 60 μM (trypsin; [6]): 0%
remaining at 0.075 h, 60 μM (trypsin; [6]): 0%
remaining at 0.1 h, 60 μM (trypsin; [6]): 0%
remaining at 0.15 h, 60 μM (trypsin; [6]): 0%
Body weight (g) X ± SD End [1]: 160.9 ± 4.7 g
Body weight (g) X ± SD Start [1]: 180.2 ± 6.8 g
Changes of body weight (%) [1]: −10.71%

Secukinumab: positive drug in the subcutaneous ear swelling test; anti IL-17A antibody
Swelling (%) (mouse ear swelling; 4 hours after croton oil): 72.54 ± 25.32 %
Swelling inhibitory (%) (mouse ear swelling; vs model control): 37.36%

Trp-Glu-Glu-Tyr-Leu-Asp-Tyr-Val-Gly-Phe-Cys-Thr-Tyr-Ser-Ile-Pro-Pro-Gln-Cys-Tyr-Gly-Thr-Val-Phe-Thr-Ser (WEEYLDYVGFCTYSIPPQCYGTVFTS; disulfide 11-19 (inferred)) [PCSK9_6CH]
hypolipidemic activity after duodenal administration (in words) ([2]; 20 μmol/kg, P407 induced hyperlipidemia mice): did not show hypolipidemic activity
TC 15 min ([2]; serum, duodenal injection 20 μmol/kg, 15 min, mean ± sd): 2742 ± 651 µg/mL
TC 30 min ([2]; serum, duodenal injection 20 μmol/kg, 30 min, mean ± sd): 3071 ± 590 µg/mL
TC 60 min ([2]; serum, duodenal injection 20 μmol/kg, 60 min, mean ± sd): 3127 ± 567 µg/mL
TC 90 min ([2]; serum, duodenal injection 20 μmol/kg, 90 min, mean ± sd): 2986 ± 650 µg/mL
serum total cholesterol (TC) level after subcutaneous injection (in words) [3]: reduced serum TC level
serum total cholesterol (TC) level after subcutaneous injection (in words) ([3]; listed as SEQ ID NO: 230): excellent lowering lipid (total cholesterol) activities in vivo
TC 15 min ([3]; serum, subcutaneous 2 μmol/kg, 15 min after administration, mean ± sd): 3201 ± 1389 µg/mL
TC 30 min ([3]; serum, subcutaneous 2 μmol/kg, 30 min after administration, mean ± sd): 3363 ± 865 µg/mL
TC 60 min ([3]; serum, subcutaneous 2 μmol/kg, 60 min after administration, mean ± sd): 2691 ± 979 µg/mL
TC 90 min ([3]; serum, subcutaneous 2 μmol/kg, 90 min after administration, mean ± sd): 2655 ± 954 µg/mL
inhibitory activity on the interaction between PCSK9 and LDLR (in words) [4]: good inhibitory activity on the interaction between PCSK9 and LDLR
inhibitory activity on the interaction between PCSK9 and LDLR (in words) ([4]; listed as SEQ ID NO: 230): good inhibitory effects in vitro
